Data reported in ChEMBL document CHEMBL3352120, “Enantioselective induction of SIRT1 gene by syringaresinol from Panax ginseng berry and Acanthopanax senticosus Harms stem” (Bioorg Med Chem Lett, 2015).
pKd: −log10 of the molar value. Active and inactive are the calls of the source. The calls are words filed in the database; no cut-off is given here.

Columns and labels:
[1] = system: HUVEC; assay: Induction of SIRT1 mRNA expression in HUVEC at 5 to 100 uM by quantitative RT-PCR analysis; assay type: functional, cell-based; details: Homo sapiens
[2] = system: HUVEC; assay: Induction of SIRT1 mRNA expression in HUVEC at 5 to 100 uM after 24 hrs by luciferase reporter gene assay relative to untreated control; assay type: functional, cell-based; details: Homo sapiens
[3] = system: HUVEC; assay: Cytotoxicity against HUVEC assessed as cell viability at 5 to 300 uM after 24 hrs by MTT assay; assay type: cell-based; details: human
[4] = target: T1, Forkhead box protein O3 (Homo sapiens, UniProt O43524); assay: Induction of FOXO3a binding to SIRT1 in HUVEC at 50 uM after 24 hrs by chromatin immunoprecipitation assay
[5] = target: T1, Forkhead box protein O3; assay: Binding affinity to His-tagged FOXO3a (unknown origin) by SPR analysis
[6] = system: HUVEC; assay: Induction of SIRT1 mRNA expression in HUVEC by quantitative RT-PCR analysis; assay type: functional, cell-based; details: Homo sapiens
[7] = system: HUVEC; assay: Induction of SIRT1 mRNA expression in HUVEC after 24 hrs by luciferase reporter gene assay relative to untreated control; assay type: functional, cell-based; details: Homo sapiens

T1 sequence (O43524 whole entry): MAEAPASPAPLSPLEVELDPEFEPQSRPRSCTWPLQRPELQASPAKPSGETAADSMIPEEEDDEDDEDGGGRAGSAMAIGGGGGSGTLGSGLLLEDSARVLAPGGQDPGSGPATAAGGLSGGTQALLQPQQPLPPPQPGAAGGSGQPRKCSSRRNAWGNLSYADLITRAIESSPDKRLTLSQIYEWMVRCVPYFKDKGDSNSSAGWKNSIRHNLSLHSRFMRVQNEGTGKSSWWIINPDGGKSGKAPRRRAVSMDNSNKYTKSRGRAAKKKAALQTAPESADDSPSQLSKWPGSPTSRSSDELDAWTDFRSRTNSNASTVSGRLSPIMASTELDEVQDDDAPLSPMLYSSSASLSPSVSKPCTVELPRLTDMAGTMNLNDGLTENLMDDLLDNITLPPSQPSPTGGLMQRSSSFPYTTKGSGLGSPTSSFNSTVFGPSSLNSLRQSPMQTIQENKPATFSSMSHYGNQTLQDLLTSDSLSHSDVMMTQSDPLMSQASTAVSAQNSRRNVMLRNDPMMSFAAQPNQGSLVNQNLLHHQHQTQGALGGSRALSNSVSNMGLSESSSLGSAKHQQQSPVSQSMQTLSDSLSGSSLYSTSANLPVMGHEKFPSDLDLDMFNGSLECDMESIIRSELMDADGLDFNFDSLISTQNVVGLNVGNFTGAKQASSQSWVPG

Row | Activity [2] | Activity [4] | Activity [5] | Activity [7] | pKd [5] | SMILES | Activity [1] | Activity [3] | Activity [6]
1 | inactive | inactive | inactive |  |  | COc1cc([C@@H]2OC[C@@H]3[C@H]2CO[C@H]3c2cc(OC)c(O)c(OC)c2)cc(OC)c1O | inactive | Non-toxic | 
2 |  | Active |  | Dose-dependent effect | 2.76 | COc1cc([C@H]2OC[C@H]3[C@@H]2CO[C@@H]3c2cc(OC)c(O)c(OC)c2)cc(OC)c1O [SYRINGARESINOL] |  | Non-toxic | Dose-dependent effect
